The subject of assay [1] is adjuvant-induced arthritis in rats. As to the kind of experiment: Established adjuvant-induced arthritis in rats (decrease of paw volume). Format: in vivo, Charles River Lewis male rats. Conditions: for ED50: Rattus norvegicus, read-out: Adjuvant Arthritis ED50.
Assay [2] concerns characteristic stretching or writhing syndrome which is indicative of pain induced by phenylquinone. Kind of assay: Phenylquinone writhing test (PQW), analgesic activity. Format: in vivo, female white mice. To be noted: Mus musculus, read-out: PQW ED50. On the procedure: A test compound suspended in 1% methylcellulose was given orally to fasted (17-21 hours) female white mice, 5-20 animals per double blind test. Aqueous (0.01% phenyl-p-benzoquinone) phenylquinone, 0.20 ml per mouse, was injected intraperitoneally 6 minutes before observations were begun.

[3] abbreviates: oral gavage, 7 daily doses, ED50% decrease from control paw volume.
The mark [4] stands for this setting: oral, fasted mice, effective analgesic dose for 50% of the mice.

Molecules are shown by their SMILES. Like-named read-outs stand apart in the source and are kept apart here.

As for `CSc1ccc(-c2sc(Br)cc2-c2ccc(F)cc2)cc1` [Example 5, 5-bromo-3-(4-fluorophenyl)-2-(4-methylthiophenyl)thiophene], the ED50 in assay [1] (setting [3]) was 1.4 mg/kg; in assay [2] (setting [4]) it was above 108 mg/kg.

As for `COc1ccc2c(c1)c(CC(=O)O)c(C)n2C(=O)c1ccc(Cl)cc1` [Indomethacin, indomethacin, reference compound], the results for the ED50 in assay [1] (po) and in assay [2] (po) were 0.3 mg/kg and 0.35 mg/kg, respectively.

As for `CS(=O)(=O)c1ccc(-c2sc(Br)cc2-c2ccc(F)cc2)cc1` [Example 9, 5-bromo-3-(4-fluorophenyl)-2-(4-methylsulfonylphenyl)thiophene], the figures for the ED50 in assay [1] (setting [3]) and in assay [2] (setting [4]) were 0.4 mg/kg and above 108 mg/kg, respectively.

As for `CC(C)Cc1ccc(C(C)C(=O)O)cc1` (stereo not drawn) [Ibuprofen, ibuprofen, reference compound], the median effective dose (ED50) in assay [1] (setting [3]) worked out at 100 mg/kg; in assay [2] (setting [4]), 10 mg/kg.

On to `COc1ccc(-c2cc(Br)sc2-c2ccc(SC)cc2)cc1` [Example 8], for which the ED50 in assay [1] (setting [3]) is 2.9 mg/kg; in assay [2] (setting [4]) it was below 15 mg/kg.

In the case of `COc1ccc(-c2cc(I)sc2-c2ccc(OC)cc2)cc1` [Example 3, 5-Iodo-2,3-bis(4-methoxyphenyl)thiophene], the “% Decrease from control paw volume at indicated daily dose” value in assay [1] (daily dose 81 (mg/kg), oral) is on record as 46%. In assay [2] (setting [4]), the ED50 was below 15 mg/kg.

For the molecule `Cc1ccc(-c2cc(Br)sc2-c2ccc(C)cc2)cc1` [Example 7], the ED50 was above 81 mg/kg in assay [1] (setting [3]) and 2.9 mg/kg in assay [2] (setting [4]).

Regarding `COc1ccc(-c2cc(Cl)sc2-c2ccc(OC)cc2)cc1` [Example 2, 5-Chloro-2,3-bis(4-methoxyphenyl)thiophene], the figures for the ED50 in assay [1] (setting [3]) and in assay [2] (setting [4]) were 4.5 mg/kg and 2.1 mg/kg, respectively.

With `CC(=O)Oc1ccccc1C(=O)O` [Aspirin, aspirin, reference compound], the figures for the ED50 in assay [1] (po) and in assay [2] (po) were 305 mg/kg and 135 mg/kg, respectively.

Take `CSc1ccc(-c2cc(Br)sc2-c2ccc(F)cc2)cc1` [Example 6, 5-bromo-2-(4-fluorophenyl)-3-(4-methylthiophenyl)thiophene]: the ED50 was 0.25 mg/kg in assay [1] (setting [3]) and above 108 mg/kg in assay [2] (setting [4]).

Turning to `CCCCC1C(=O)N(c2ccccc2)N(c2ccccc2)C1=O` [Phenylbutazone, phenylbutazone, reference compound], the figures for the ED50 in assay [1] (setting [3]) and in assay [2] (setting [4]) were 10 mg/kg and 80 mg/kg, respectively.

For `Fc1ccc(-c2cc(Br)sc2-c2ccc(F)cc2)cc1` [Example 1, 5-Bromo-2,3-bis(4-fluorophenyl)thiophene], the ED50 in assay [1] (setting [3]) is above 60 mg/kg; in assay [2] (setting [4]), 6.8 mg/kg.

Values taken from US4590205A, “Antiinflammatory and/or analgesic 2,3-diaryl-5-halo thiophenes” (E. I. Du Pont de Nemours and Company, priority 1984, dated 1986).
